Test results taken from ChEMBL document CHEMBL1136397, “5-Aryl thiazolidine-2,4-diones as selective PPARgamma agonists” (Bioorg Med Chem Lett, 2003).

How the values were obtained:
[1] = molecular target: T1, Peroxisome proliferator-activated receptor alpha (Homo sapiens, UniProt Q07869); test: In vitro binding affinity against human PPAR alpha (peroxisome proliferator-activated alpha receptor)
T1 sequence (Q07869 whole entry): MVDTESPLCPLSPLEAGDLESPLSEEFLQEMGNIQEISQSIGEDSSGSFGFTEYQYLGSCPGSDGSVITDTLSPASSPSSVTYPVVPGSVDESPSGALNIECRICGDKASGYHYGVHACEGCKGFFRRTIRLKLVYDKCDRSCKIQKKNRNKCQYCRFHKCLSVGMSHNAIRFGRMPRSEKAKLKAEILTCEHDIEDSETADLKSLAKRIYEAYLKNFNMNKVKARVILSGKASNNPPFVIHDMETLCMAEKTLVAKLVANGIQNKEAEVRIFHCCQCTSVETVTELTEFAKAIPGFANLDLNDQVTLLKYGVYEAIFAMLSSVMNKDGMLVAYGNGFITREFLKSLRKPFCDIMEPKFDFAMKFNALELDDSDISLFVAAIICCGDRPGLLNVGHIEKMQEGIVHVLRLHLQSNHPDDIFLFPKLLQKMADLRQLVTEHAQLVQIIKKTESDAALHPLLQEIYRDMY

[2] = molecular target: T1, Peroxisome proliferator-activated receptor alpha; test: In vitro agonist activity tested for transactivation in human PPAR alpha-Gal4 chimeric COS-1 cells; format: functional, cell-based
[3] = molecular target: T2, Peroxisome proliferator-activated receptor gamma (Homo sapiens, UniProt P37231)
T2 sequence (P37231 whole entry): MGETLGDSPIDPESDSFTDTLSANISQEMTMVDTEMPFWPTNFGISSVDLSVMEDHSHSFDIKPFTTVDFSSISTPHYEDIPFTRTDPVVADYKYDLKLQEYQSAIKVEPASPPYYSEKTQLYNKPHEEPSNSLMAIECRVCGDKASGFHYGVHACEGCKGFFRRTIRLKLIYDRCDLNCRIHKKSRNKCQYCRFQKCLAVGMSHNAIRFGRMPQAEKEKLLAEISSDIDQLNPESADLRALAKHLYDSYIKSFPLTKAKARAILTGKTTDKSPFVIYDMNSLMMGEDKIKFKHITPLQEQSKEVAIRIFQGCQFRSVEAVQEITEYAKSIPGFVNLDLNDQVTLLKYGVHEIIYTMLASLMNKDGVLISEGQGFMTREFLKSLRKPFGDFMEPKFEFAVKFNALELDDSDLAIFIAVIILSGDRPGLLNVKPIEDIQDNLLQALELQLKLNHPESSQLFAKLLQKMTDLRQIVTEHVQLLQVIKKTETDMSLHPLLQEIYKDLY
Description: In vitro agonist activity tested for transactivation in human PPAR gamma-Gal4 chimeric COS-1 cells

[4] = molecular target: T3, Peroxisome proliferator-activated receptor delta (Homo sapiens, UniProt Q03181)
T3 sequence (Q03181 whole entry): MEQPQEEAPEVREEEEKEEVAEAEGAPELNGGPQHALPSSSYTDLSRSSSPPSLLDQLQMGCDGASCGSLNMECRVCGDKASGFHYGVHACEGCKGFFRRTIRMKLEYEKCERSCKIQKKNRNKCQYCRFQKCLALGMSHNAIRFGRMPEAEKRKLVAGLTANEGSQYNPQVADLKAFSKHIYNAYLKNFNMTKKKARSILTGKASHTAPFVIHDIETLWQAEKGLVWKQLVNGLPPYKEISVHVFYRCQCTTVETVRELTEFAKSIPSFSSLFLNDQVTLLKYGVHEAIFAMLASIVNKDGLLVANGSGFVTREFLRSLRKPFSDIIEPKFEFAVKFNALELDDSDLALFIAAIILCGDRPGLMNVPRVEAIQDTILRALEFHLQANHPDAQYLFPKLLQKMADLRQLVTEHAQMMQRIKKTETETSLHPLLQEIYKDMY
Description: In vitro binding affinity against human PPAR delta (peroxisome proliferator-activated delta receptor)

[5] = molecular target: T2, Peroxisome proliferator-activated receptor gamma; remark: listed apart in the source
Description: In vitro binding affinity against human PPAR gamma (peroxisome proliferator-activated gamma receptor)

[6] = molecular target: T3, Peroxisome proliferator-activated receptor delta; remark: listed apart in the source
Description: In vitro agonist activity tested for transactivation in human PPAR delta-GAL4 chimeric COS-1 cells

[7] = Half-life was determined in rat after intravenous administration (0.5 mg/kg); format: ADME, organism-based; settings: in vivo
Rattus norvegicus [8] = test: Dose-normalized AUC was determined in rat after peroral administration (2 mg/kg); format: ADME, organism-based; settings: in vivo, po
[9] = Oral bioavailability in rat (dose 2 mg/kg); format: ADME, organism-based; settings: in vivo
[10] = (§1) Plasma clearance was determined in rat after intravenous administration (0.5 mg/kg); format: ADME, organism-based; settings: read-out: Clp
[11] = In vivo glucose correction was determined in male db/db mice after administration at 10 mg/kg; format: functional, Mus musculus
[12] = In vivo triglyceride correction was determined in male db/db mice after administration at 10 mg/kg; format: functional, Mus musculus
Mus musculus [13] = test: In vivo glucose correction was determined in male db/db mice after administration at 5 mg/kg; format: functional
Mus musculus [14] = test: In vivo triglyceride correction was determined in male db/db mice after administration at 5 mg/kg; format: functional
Rattus norvegicus [15] = test: as §1; format: functional, organism-based

| IC50 [1] [µM] | EC50 [3] [µM] | IC50 [4] [µM] | IC50 [5] [µM] | SMILES | EC50 [2] [µM] | EC50 [6] [µM] | half-life [7] [h] | AUC (Rattus norvegicus [8]) [µM·h] | bioavailability [9] [%] | clearance [10] [mL/min/kg] | Glucose correction [11] [%] | Triglyceride correction [12] [%] | Glucose correction (Mus musculus [13]) [%] | Triglyceride correction (Mus musculus [14]) [%] | CL (mL.min-1.kg-1) (Rattus norvegicus [15]) |
| --- | --- | --- | --- | --- | --- | --- | --- | --- | --- | --- | --- | --- | --- | --- | --- |
| > 50 | 0.7 | 0.88 | 0.43 | CCCc1cc(Oc2ccccc2)ccc1OCCCOc1ccc(C2SC(=O)NC2=O)cc1Cl (stereo unspecified) | > 3 | > 3 | – | – | – | – | – | – | – | – | – |
| > 50 | 0.02 | > 50 | 0.13 | CCCc1cc(Oc2ccc(-c3ccccc3)cc2)ccc1OCCCOc1ccc(C2SC(=O)NC2=O)cc1 (stereo unspecified) | > 3 | > 3 | 2.2 | 0.7 | 6 | 2.8 | – | – | – | – | – |
| > 50 | 0.1 | 6 | 6.7 | CCCc1cc(Oc2ccccc2)ccc1OCCCOc1ccc(C2SC(=O)NC2=O)cc1C (stereo unspecified) | > 3 | > 3 | – | – | – | – | – | – | – | – | – |
| > 50 | – | > 50 | 0.18 | CCCc1cc(Oc2ccc(C3CCCC3)cc2)ccc1OCCCOc1ccc(C2SC(=O)NC2=O)cc1 (stereo unspecified) | – | – | – | – | – | – | – | – | – | – | – |
| > 50 | – | > 50 | 2.6 | CCCc1cc(Oc2ccc(C)cc2)ccc1OCCCOc1ccc(C2SC(=O)NC2=O)cc1 (stereo unspecified) | – | – | – | – | – | – | – | – | – | – | – |
| 0.34 | – | 0.16 | – | CC(C)Cc1cc(Oc2ccccc2)ccc1OCCCOc1ccc(C2SC(=O)NC2=O)cc1 (stereo unspecified) | – | – | – | – | – | – | – | – | – | – | – |
| > 50 | – | > 50 | 1.8 | CCCc1cc(Oc2ccc(C(F)(F)F)cc2)ccc1OCCCOc1ccc(C2SC(=O)NC2=O)cc1 (stereo unspecified) | – | – | – | – | – | – | – | – | – | – | – |
| > 50 | 0.03 | > 50 | 0.13 | CCCc1cc(Oc2ccc(CC(C)C)cc2)ccc1OCCCOc1ccc(C2SC(=O)NC2=O)cc1 (stereo unspecified) | > 3 | > 3 | – | – | – | – | – | – | – | – | – |
| > 50 | – | > 50 | 2 | CCCc1cc(Oc2ccc(NS(C)(=O)=O)cc2)ccc1OCCCOc1ccc(C2SC(=O)NC2=O)cc1 (stereo unspecified) | – | – | – | – | – | – | – | – | – | – | – |
| > 50 | – | > 50 | > 15 | O=C1NC(=O)C(c2ccc(OCCCOc3ccc(Oc4ccccc4)cc3)cc2)S1 (stereo unspecified) | – | – | – | – | – | – | – | – | – | – | – |
| > 50 | 0.4 | > 10 | 1 | CCCc1cc(Oc2ccccc2)ccc1OCCCOc1ccc(C2SC(=O)NC2=O)cc1OC (stereo unspecified) | > 3 | > 3 | – | – | – | – | – | – | – | – | – |
| > 50 | 0.2 | 1 | 0.12 | CCCc1cc(Oc2ccccc2)ccc1OCCCOc1ccc(C2SC(=O)NC2=O)cc1CCC (stereo unspecified) | > 3 | 3 | – | – | – | – | – | – | – | – | – |

The remaining lines, values behind:

| SMILES | IC50 [1] [µM] | EC50 [3] [µM] | IC50 [4] [µM] | IC50 [5] [µM] | EC50 [2] [µM] | EC50 [6] [µM] | half-life [7] [h] | AUC (Rattus norvegicus [8]) [µM·h] | bioavailability [9] [%] | clearance [10] [mL/min/kg] | Glucose correction [11] [%] | Triglyceride correction [12] [%] | Glucose correction (Mus musculus [13]) [%] | Triglyceride correction (Mus musculus [14]) [%] | CL (mL.min-1.kg-1) (Rattus norvegicus [15]) |
| --- | --- | --- | --- | --- | --- | --- | --- | --- | --- | --- | --- | --- | --- | --- | --- |
| CCCc1cc(Oc2ccc(Cl)cc2)ccc1OCCCOc1ccc(C2SC(=O)NC2=O)cc1 (stereo unspecified) | > 50 | 0.08 | > 50 | 2 | 3 | > 3 | 5.4 | 6.7 | 58 | 2.9 | 86 | 80 | – | – | – |
| CCCc1cc(Oc2ccccc2)ccc1OCCCOc1ccc(C2SC(=O)NC2=O)cc1F (stereo unspecified) | – | 0.3 | 2 | – | > 3 | > 3 | 1.7 | 7.43 | 63 | 2.9 | 43 | 50 | – | – | – |
| CCCc1cc(Oc2ccc(F)cc2)ccc1OCCCOc1ccc(C2SC(=O)NC2=O)cc1 (stereo unspecified) | > 50 | – | > 50 | – | > 50 | > 50 | 2.1 | 5.97 | 63 | 3.6 | 78 | 71 | – | – | – |
| CCCc1cc(Oc2ccc(NS(=O)(=O)c3ccc(C)cc3)cc2)ccc1OCCCOc1ccc(C2SC(=O)NC2=O)cc1 (stereo unspecified) | > 50 | 0.5 | > 50 | 5.7 | > 3 | > 3 | – | – | – | – | – | – | – | – | – |
| CN(CCOc1ccc(CC2SC(=O)NC2=O)cc1)c1ccccn1 (stereo unspecified) [ROSIGLITAZONE] | – | – | – | – | – | – | 1.2 | 16.4 | 85 | 2.7 | – | – | 46 | 52 | – |
| CCCc1cc(Oc2ccccc2)ccc1OCCCOc1ccc(C2SC(=O)NC2=O)cc1 (stereo unspecified) | 50 | – | > 10 | – | > 3 | > 3 | 2.3 | 13.8 | 89 | 2.3 | 77 | 74 | – | – | – |
| CCCc1cc(Oc2ccccc2)ccc1OCCCCOc1ccc(C2SC(=O)NC2=O)cc1 (stereo unspecified) | > 50 | – | > 10 | 3 | > 3 | > 3 | – | – | – | – | – | – | – | – | – |
| CCCc1cc(Oc2ccc(S(C)(=O)=O)cc2)ccc1OCCCOc1ccc(C2SC(=O)NC2=O)cc1 (stereo unspecified) | > 50 | 0.12 | > 50 | 0.25 | > 3 | > 3 | 2.8 | 11.8 | 84 | – | 86 | 78 | 62 | 55 | 2.1 |
| CCCc1cc(Oc2ccc(OC)cc2)ccc1OCCCOc1ccc(C2SC(=O)NC2=O)cc1 (stereo unspecified) | > 50 | – | > 50 | 0.46 | > 10 | > 3 | 2.8 | 11.7 | 39 | 1.1 | 67 | 67 | – | – | – |
